Like-named read-outs stand apart in the source and are kept apart here.
Experiments:
[1] = Pulse radiolysis (E(1) and fragmentation rate); type: physicochemical; details: for kfrag. (fragmentation rate constant upon 1-electron reduction): benzyl-type radical formation; for E (1)/V (one-electron reduction potential): determined against methylviologen
A431 xenografts = assay: In vivo efficacy in A431 xenografts
Protocol: (§1) Specific pathogen-free homozygous female CD-1 nude mice (Charles River Laboratories, Wilmington, Mass.) were inoculated subcutaneously with a single cell suspension of A431 cells (5×10^6 cells/100 pt; right flank). When A431 tumour xenografts were established (typically 6-10 days) mice were randomized to treatment groups. All compounds were prepared in lactate buffer (pH4). Mice were dosed by intraperitoneal injection (0.01-0.03 ml/g) using the stated schedules and dose levels. Tumour size and body weights were measured at regular intervals. Tumour volume was calculated as π (length×width^2)/6. […] Differences in RTV^4 were tested for statistical difference by Mann Whitney U test using SigmaStat v3.5.

SKOV3 xenografts = assay: In vivo efficacy in SKOV3 xenografts; parameters: species or system mice
Protocol: as §1, with “NIH-III” for “CD-1”, “SKOV3” for “A431”, “(1×10^7” for “(5×10^6”, “μL;” for “pt;”, “50-65” for “6-10”
as §1, with “NIH-III” for “CD-1”, “SKOV3” for “A431”, “(1×10^7” for “(5×10^6”, “μL;” for “pt;”, “50-65” for “6-10”, “Compounds 42 and 161” for “All compounds”

H1975 xenografts = assay: In vivo efficacy in H1975 xenografts; parameters: species or system mice
A431 cells = assay: Cellular growth inhibition (sulforhodamine B)
erbB1 = erbB1 (Homo sapiens, UniProt P00533); assay: Inhibition of erbB1 autophosphorylation in EGF-stimulated intact A431 cells (Western blot)
erbB1^T790M = erbB1^T790M (Homo sapiens, UniProt P00533, T790M); assay: Isolated enzyme inhibition (Invitrogen Z′-LYTE kinase assay); type: biochemical; details: 10 μM ATP, duplicate
Sequence of erbB1^T790M (P00533 25-1210 T790M): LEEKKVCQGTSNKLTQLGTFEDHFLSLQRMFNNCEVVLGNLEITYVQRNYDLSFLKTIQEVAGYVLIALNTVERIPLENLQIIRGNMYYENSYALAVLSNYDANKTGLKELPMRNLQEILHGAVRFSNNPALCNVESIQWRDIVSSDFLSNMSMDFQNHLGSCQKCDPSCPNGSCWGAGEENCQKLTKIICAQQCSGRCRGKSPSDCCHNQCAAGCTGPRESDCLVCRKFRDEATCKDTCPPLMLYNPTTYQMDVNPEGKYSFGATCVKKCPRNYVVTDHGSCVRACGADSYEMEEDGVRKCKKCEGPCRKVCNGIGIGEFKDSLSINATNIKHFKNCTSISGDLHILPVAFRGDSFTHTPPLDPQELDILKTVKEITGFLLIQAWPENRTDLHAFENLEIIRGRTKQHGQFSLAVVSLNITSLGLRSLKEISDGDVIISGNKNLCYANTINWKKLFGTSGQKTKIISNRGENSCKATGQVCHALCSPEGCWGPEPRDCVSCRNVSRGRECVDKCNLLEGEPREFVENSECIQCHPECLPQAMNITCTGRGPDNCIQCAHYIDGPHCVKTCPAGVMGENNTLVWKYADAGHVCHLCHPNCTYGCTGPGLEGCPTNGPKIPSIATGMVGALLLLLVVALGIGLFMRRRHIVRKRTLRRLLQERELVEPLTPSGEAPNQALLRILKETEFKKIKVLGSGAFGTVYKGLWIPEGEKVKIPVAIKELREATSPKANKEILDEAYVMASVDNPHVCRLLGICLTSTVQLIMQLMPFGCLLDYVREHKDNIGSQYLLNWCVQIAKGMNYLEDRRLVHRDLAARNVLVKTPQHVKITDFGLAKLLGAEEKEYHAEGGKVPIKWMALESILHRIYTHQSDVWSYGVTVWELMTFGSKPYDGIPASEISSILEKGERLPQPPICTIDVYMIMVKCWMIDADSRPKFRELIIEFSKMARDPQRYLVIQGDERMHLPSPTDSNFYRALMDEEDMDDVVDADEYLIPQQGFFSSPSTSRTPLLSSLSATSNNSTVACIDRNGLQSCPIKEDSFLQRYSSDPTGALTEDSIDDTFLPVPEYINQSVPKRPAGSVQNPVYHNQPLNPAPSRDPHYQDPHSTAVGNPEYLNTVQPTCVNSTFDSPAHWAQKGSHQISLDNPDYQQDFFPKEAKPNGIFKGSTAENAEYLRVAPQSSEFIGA

Sequence of erbB1 (P00533 25-1210): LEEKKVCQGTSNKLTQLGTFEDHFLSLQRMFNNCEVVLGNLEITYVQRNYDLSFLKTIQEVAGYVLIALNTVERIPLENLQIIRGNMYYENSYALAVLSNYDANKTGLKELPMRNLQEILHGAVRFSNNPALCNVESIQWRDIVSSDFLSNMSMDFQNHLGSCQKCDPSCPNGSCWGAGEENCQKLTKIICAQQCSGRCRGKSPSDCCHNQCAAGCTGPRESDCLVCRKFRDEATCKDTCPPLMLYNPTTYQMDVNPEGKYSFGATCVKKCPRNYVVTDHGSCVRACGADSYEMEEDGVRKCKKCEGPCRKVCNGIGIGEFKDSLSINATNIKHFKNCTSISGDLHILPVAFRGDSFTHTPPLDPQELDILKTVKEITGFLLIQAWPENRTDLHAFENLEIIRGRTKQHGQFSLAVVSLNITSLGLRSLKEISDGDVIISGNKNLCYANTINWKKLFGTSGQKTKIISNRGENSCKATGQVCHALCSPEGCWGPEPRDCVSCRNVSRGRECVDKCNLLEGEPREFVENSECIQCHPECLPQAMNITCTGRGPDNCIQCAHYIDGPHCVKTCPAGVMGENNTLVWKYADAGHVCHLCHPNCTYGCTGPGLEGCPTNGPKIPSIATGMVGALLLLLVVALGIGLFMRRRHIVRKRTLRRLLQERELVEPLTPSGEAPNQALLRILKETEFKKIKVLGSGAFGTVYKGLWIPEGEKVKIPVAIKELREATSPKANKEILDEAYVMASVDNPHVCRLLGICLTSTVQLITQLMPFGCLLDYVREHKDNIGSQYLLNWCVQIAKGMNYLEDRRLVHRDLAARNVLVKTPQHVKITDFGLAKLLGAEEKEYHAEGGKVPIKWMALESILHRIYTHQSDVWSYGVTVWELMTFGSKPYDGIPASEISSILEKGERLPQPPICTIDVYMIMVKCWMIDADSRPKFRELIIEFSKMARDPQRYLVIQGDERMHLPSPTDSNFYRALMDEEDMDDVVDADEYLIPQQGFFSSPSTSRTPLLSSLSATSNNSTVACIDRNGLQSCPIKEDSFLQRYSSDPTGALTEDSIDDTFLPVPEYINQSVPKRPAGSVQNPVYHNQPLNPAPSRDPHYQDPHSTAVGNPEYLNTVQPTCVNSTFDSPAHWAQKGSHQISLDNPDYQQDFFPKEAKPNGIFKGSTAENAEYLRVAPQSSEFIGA

## Cn1cnc([N+](=O)[O-])c1C[N+](C)(C)C/C=C/C(=O)Nc1cc2c(Nc3ccc(F)c(Br)c3)ncnc2cn1 [Compound 42, (2E)-4-{[4-(3-bromo-4-fluoroanilino)pyrido[3,4-d]pyrimidin-6-yl]amino}-N,N-dimethyl-N-[(1-methyl-4-nitro-1H-imidazol-5-yl)methyl]-4-oxo-2-buten-1-ammonium bromide]
[1]
  kfrag. (fragmentation rate constant upon 1-electron reduction): 50 ± 10 s⁻¹
  E (1)/V (one-electron reduction potential): −0.425±0.008 V
A431 xenografts; large A431 xenografts, 20 mg/kg/dose, q3dx8, IP
  tumour growth inhibition (TGI): 400%
A431 xenografts; large A431 xenografts, 40 mg/kg/dose, q3dx8, IP
  tumour growth inhibition (TGI): 800%
A431 xenografts; large A431 xenografts, 60 mg/kg/dose, q3dx8, IP
  tumour growth inhibition (TGI): 786%
A431 xenografts; large A431 xenografts, 80 mg/kg/dose, q3dx8, IP
  tumour growth inhibition (TGI): 843%
SKOV3 xenografts; 100 (42) and 31.6 (161) μmol/kg/dose, q3dx9, IP
  efficacy by growth delay: superior efficacy to compound 161
SKOV3 xenografts; q3dx9, 100 (42) and 31.6 (161) μmol/kg/dose
  deaths: 0/7
H1975 xenografts; H1975 xenografts, equitoxic dose 133 (42) and 42.2 (161) μmol/kg/dose, q3dx4, IP
  tumour growth inhibition (TGI): 188%
H1975 xenografts; H1975 xenografts, q3dx4 at respective MTD, IP
  tumour growth inhibition (TGI): 229%
H1975 xenografts; large H1975 xenografts, 75 umol/kg/dose, q3dx8, IP
  tumour growth inhibition (TGI): 154%
H1975 xenografts; large H1975 xenografts, 100 umol/kg/dose, q3dx8, IP
  tumour growth inhibition (TGI): 213%
H1975 xenografts; large H1975 xenografts, 133 umol/kg/dose, q3dx8, IP
  tumour growth inhibition (TGI): 275%
A431 cells; Homo sapiens, A-431, 4 h, read-out: Cellular Growth Inhibition IC50 A431 Anoxic
  IC50: 75 nM
A431 cells; Homo sapiens, A-431, 24 h, read-out: Cellular Growth Inhibition IC50 A431 Oxic
  IC50: 1690 nM
A431 cells; Table 9
  A431 Deact.: 56 fold
  A431 HCR: 60.0 fold
erbB1
  IC50: 411 nM
erbB1; Table 8, A431 cells
  Deact. erbB1 (fold reduction in cellular inhibition relative to the parent kinase inhibitor): 82 fold

## Cn1cnc([N+](=O)[O-])c1C[N+](C)(C)C/C=C/C(=O)Nc1ccc2ncnc(Nc3cccc(Br)c3)c2c1.[Br-] [Compound 20, (2E)-4-{[4-(3-bromoanilino)-6-quinazolinyl]amino}-N,N-dimethyl-N-[(1-methyl-4-nitro-1H-imidazol-5-yl)methyl]-4-oxo-2-buten-1-ammonium bromide]
erbB1^T790M
  IC50: 594 nM
[1]
  kfrag. (fragmentation rate constant upon 1-electron reduction): 130 ± 10 s⁻¹
  E (1)/V (one-electron reduction potential): −0.427 V
A431 xenografts; A431 xenografts, equitoxic dose (63% of single dose MTD), q4dx6, IP
  efficacy by growth delay: superior efficacy to effector 11
A431 xenografts; A431 xenografts, q4dx3 at MTD, IP in lactate buffer
  tumour growth inhibition (TGI): > 210%
A431 xenografts; A431 xenografts, q4dx6, 63% of single dose MTD
  deaths: 0/12
SKOV3 xenografts; 133 (20) and 56 (11) umol/kg/dose, q3dx6, IP
  efficacy by growth delay: superior efficacy to effector 11
SKOV3 xenografts; q3dx6, 133 (20) and 56 (11) umol/kg/dose
  deaths: 0/7
A431 cells; read-out: Cellular Growth Inhibition IC50 A431 Anoxic, Table 3, first 4 hours of 24 hour exposure anoxic
  IC50: 78 nM
A431 cells; read-out: Cellular Growth Inhibition IC50 A431 Oxic, Table 3, 24 hour exposure entirely oxic
  IC50: 2090 nM
erbB1; read-out: cellular erbB1 autophosphorylation IC50, intact A431 cells
  IC50: 555 nM

Reference: US9073916B2, “Prodrug forms of kinase inhibitors and their use in therapy” (AUCKLAND UNISERVICES LIMITED, priority 2009, dated 2015)
